{
  "source": "patent US20040228844A1",
  "about": "“Method for controlling harmful plant-parasitic nematodes” (priority 2003, published 2004)",
  "key": {"Meloidogyne incognita [1]": {"tested_on": "Meloidogyne incognita", "assay": "Test Example 1: root-knot damage of cucumber seedlings in nematode-infested soil", "details": "20 kg per 1000 m^2, soil mixing, 50 days after transplantation, scale 0 (no root-knots) to 5 (dead), average per 10 plants", "quoted_text": "To 5 kg of nematode-infested soil (nematode density: 2255 nematodes per 20 g (investigation method: Bellman's method)) in which Meloidogyne incognita seriously grew was applied each (100 mL) of the test solutions diluted at given concentrations: and then the resulting soil was thoroughly mixed. […] (diameter: about 3 mm), 500 g of each of the soil to which each test solution was applied and mixed was placed. Cucumber seedlings (14 days after sowing, 2 plants per cup, 5 replications) were transplanted in the cup, which contained each treated soil. After transplantation, the plants were left in a glass greenhouse.\nThe degree of root-knot damages was evaluated according to the following criteria:\n5: The plant is withered and dead due to parasitism of nematodes.\n4: A number of root-knots, which range to form-large root-knots, are observed on the entire roots.\n3: Root-knots are observed on the entire roots, and large root-knots being partly formed.\n2: Formation of root-knots is partly observed on the root, and some of them ranging, but no large root-knot is observed.\n1: A little formation of root-knots is observed.\n0: No formation of root-knots is found."}, "Meloidogyne incognita [2]": {"tested_on": "Meloidogyne incognita", "assay": "Test Example 2: gall control on cucumber seedlings in nematode-infested soil", "type": "in vivo", "details": "20 kg /1000 m^2, 32 days after transplantation, (C−S)×100/C", "procedure": "To 3 kg of the Meloidogyne incognita-infested soil was applied each (100 mL) of the test solutions diluted at given concentrations and then the resulting soil was thoroughly mixed.\nThe gall control value was calculated by the following equation:\nGall control value=(C−S)×100/C\nwherein C is an average gall number per plant in a non-treated group, and S is an average gall number per plant in a treated group."}},
  "data": [
    {"smiles": "CSCC[C@H](N)C(=O)O", "note": "[Component A Agent, methionine]", "values": [
      {"measurement": "Average Degree of Root-Knots Damages", "setting": "Meloidogyne incognita [1]", "result": 3.2},
      {"measurement": "Gall Control Value", "setting": "Meloidogyne incognita [2]", "result": 44}
    ]}
  ]
}
